Experimental data taken from ChEMBL document CHEMBL1157381, “Alkaloids from the Australian rainforest tree Ochrosia moorei” (J Nat Prod, 2008).
Active and inactive are the calls of the source. The rule behind the calls is not given here.

Columns and labels:
Assay type in all cases: cell-based
[1] = target: T1, Glucocorticoid receptor (Homo sapiens) (UniProt P04150); test: Inhibition of glucocorticoid receptor-glucocorticoid complex transfected in rat R1 cells assessed as down-regulation of TPA-responsive element proinflammatory gene expression at 100 uM after 24 hrs by beta-galactosidase assay; parameters: scale not given: the % may be the effect or the level left
T1 sequence (whole entry): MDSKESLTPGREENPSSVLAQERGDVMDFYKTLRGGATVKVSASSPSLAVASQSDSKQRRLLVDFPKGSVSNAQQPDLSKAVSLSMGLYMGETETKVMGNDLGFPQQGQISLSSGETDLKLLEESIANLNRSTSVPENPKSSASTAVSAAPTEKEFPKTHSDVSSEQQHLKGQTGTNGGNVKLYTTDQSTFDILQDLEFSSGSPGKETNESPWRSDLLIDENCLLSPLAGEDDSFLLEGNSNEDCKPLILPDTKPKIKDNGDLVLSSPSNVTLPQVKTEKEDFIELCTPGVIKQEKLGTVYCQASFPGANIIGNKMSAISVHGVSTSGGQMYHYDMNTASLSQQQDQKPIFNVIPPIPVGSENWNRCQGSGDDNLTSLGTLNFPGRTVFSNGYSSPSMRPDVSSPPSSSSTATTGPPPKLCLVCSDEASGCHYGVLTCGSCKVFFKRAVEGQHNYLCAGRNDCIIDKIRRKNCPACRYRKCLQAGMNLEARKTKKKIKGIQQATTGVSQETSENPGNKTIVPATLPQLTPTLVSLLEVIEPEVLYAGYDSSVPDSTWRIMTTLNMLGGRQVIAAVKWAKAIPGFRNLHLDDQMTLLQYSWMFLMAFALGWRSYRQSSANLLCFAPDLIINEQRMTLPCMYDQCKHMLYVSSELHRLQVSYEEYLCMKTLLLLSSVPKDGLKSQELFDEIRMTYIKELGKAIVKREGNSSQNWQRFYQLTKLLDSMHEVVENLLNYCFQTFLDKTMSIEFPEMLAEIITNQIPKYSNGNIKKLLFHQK

Glucocorticoid receptor = target: T2, Glucocorticoid receptor (Homo sapiens, UniProt P04150); test: Inhibition of glucocorticoid receptor-glucocorticoid complex transfected in rat R1 cells assessed as down-regulation of TPA-responsive element proinflammatory gene expression after 24 hrs by beta-galactosidase assay
T2 sequence (P04150 whole entry): T1 sequence (whole entry)

R1 = test: Cytotoxicity against rat R1 cells at 100 uM after 24 hrs by neutral red assay; conditions: r1, 24 h
[2] = target: T1, Glucocorticoid receptor (Homo sapiens); test: Inhibition of glucocorticoid receptor-glucocorticoid complex transfected in rat R1 cells assessed as down-regulation of TPA-responsive element proinflammatory gene expression at 10 uM after 24 hrs by beta-galactosidase assay

SMILES	Activity [1] [%]	IC50 (Glucocorticoid receptor) [µM]	Activity (R1)	Activity [2]
C=C[C@H]1[C@H](O[C@H]2O[C@H](CO)[C@@H](O)[C@H](O)[C@H]2O)OC=C(C(=O)OC)[C@H]1Cc1nc(C(=O)O)cc2c1[nH]c1ccccc12	30			
Cc1c2ccncc2c(C)c2c1[nH]c1ccccc12 [ELLIPTECINE]		90	Non-toxic	
CN1c2ccccc2[C@]23CCN4C=C(C(=O)CO)[C@H](C[C@H]42)C[C@H]13				inactive
C=C1c2[nH]c3ccccc3c2CN2CC[C@H]1/C(=C\C)C2	54			
CC(=O)C1=CN2CC[C@]34c5ccccc5N(C)[C@H]3C[C@H]1C[C@H]24				inactive
COc1ccc2[nH]c3c(C)c4ccncc4c(C)c3c2c1		90	Non-toxic	
